Laboratory results from patent US20070232563A1, “Method for Enhancing Biological Activity and/or Expanding Suitable Region for Biological Activity of Living Body Contacting with Aqueous Environment” (Kabushiki Kaisha Hayashibara Seibutsu Kagaku Kenky, priority 2004, published 2007).

Key:
[1] = tested on: short-necked clam (Ruditapes philippinarum); assay: Biological activity of short-necked clam (aqueduct extension score) in aqueous mineral solutions; type: in vivo; conditions: for Judgment score of biological activity: Experiment 2; for Judgment score for biological activity: total of 18 clams, 16 h
Protocol: Suitable region for biological activity of short-necked clam (Ruditapes philippinarum), as a fish or shellfish living in seawater, was examined by adding various saccharides to mineral aqueous solutions with various concentrations. In detail, solar salt (85% by weight of sodium chloride and 15% by weight of magnesium) as minerals was dissolved in running water kept in a container for two days to give final concentrations described in the following Table 1. Saccharide (any one of D-glucose, maltose, sucrose, maltitol, α,α-trehalose, α-maltosyl α,α-trehalose, maltotetraose and cyclic tetrasaccharide) was dissolved in the resulting salt solutions to give a final concentration of 1 w/v %, on a dry solid basis. Each of the resulting solutions was placed in a plastic bat. Eighteen pre-selected active short-necked clam in one group were placed in the bat. The bat was shaded with a black cloth and left at ambient temperature (18° C.) for 16 hours. As a control, an aqueous solar salt solution without any saccharides was prepared. Saccharides except for α-maltosyl α,α-trehalose as a saccharide derivatives thereof and cyclic tetrasaccharide were chosen from commercialized products. α-Maltosyl α,α-trehalose as saccharide derivatives of α,α-trehalose in a powder form with a purity of 98 w/w % or over was prepared by the method disclosed in Experiment 4 in Japanese Patent Kokai No. 143876/1995. Cyclic tetrasaccharide in a crystalline form with a purity of 98 w/w % or over, on a dry solid basis, was prepared by the method disclosed in Example A-7 in International Patent Publication No. WO02/10361. Influence of various saccharides was judged by observing the degree of extending aqueduct of the shellfish; 3 points: its aqueduct is well extended; 2 points: its aqueduct is slightly extended; 1 point: its aqueduct is not extended but its shells are opened; 0 point: its shells are closed. The effect on biological activity was judged by the total point of 18 shellfishes. To investigate the effective concentration range of α,α-trehalose or α-maltosyl α,α-trehalose against a mineral solution with a concentration of 1.5 w/v % or 4.5 w/v %, where α,α-trehalose or α-maltosyl α,α-trehalose was remarkably effective in Experiment 1, the following experiment using α,α-trehalose or α-maltosyl α,α-trehalose at a concentration of 0.01, 0.1, 1, 2, 3 or 4 w/v % was carried out according to the method in Experiment 1. As a control, mineral aqueous solutions with a concentration of 1.5 w/v % or 4.5 w/v % without any of the saccharides were prepared and carried out in the same manner.

[2] = tested on: crucian (Carassium cuvieri); assay: Removing fishy smell of freshwater fish: activity and sashimi panel; type: in vivo, Carassius cuvieri; conditions: macroscopic observation; bred three days; each ingredient 1 (w/v)%
Protocol: Two per group of living crucian (Carassium cuvieri) with body size in the range of 15 to 20 cm were bred at ambient temperature in an aquarium filled with 10 L of an aqueous solution containing 1 w/v % mineral (solar salt) and 1 w/v % α,α-trehalose or α-maltosyl α,α-trehalose, on a dry solid basis, for three days. Waters containing either of mineral, α,α-trehalose or α-maltosyl α,α-trehalose as references and water without any mineral and saccharides as a control were prepared to breed the fishes similarly as above. The fishes were macroscopically observed their activity, and then prepated into sashimi. Twenty panels were allowed to taste them to judge their flavor and taste (fishy smell) in such a manner of comparing with references by the following four judgment criterions; “good”: no fishy smell; “slightly good”: fishy smell is weaker than the references; “normal”: fishy smell is equal to the references; and “bad”: fishy smell is stronger than the references.

[3] = mineral 1.5 w/v %, saccharide 0.01 w/v %
[4] = mineral 1.5 w/v %, saccharide 0.1 w/v %
[5] = mineral 1.5 w/v %, saccharide 1 w/v %
[6] = mineral 1.5 w/v %, saccharide 2 w/v %
[7] = mineral 1.5 w/v %, saccharide 3 w/v %
[8] = mineral 1.5 w/v %, saccharide 4 w/v %
[9] = mineral 4.5 w/v %, saccharide 0.01 w/v %
[10] = mineral 4.5 w/v %, saccharide 0.1 w/v %
[11] = mineral 4.5 w/v %, saccharide 1 w/v %
[12] = mineral 4.5 w/v %, saccharide 2 w/v %
[13] = mineral 4.5 w/v %, saccharide 3 w/v %
[14] = mineral 4.5 w/v %, saccharide 4 w/v %
[15] = mineral 0 w/v %, saccharide 1 w/v %
[16] = mineral 0.5 w/v %, saccharide 1 w/v %
[17] = mineral 1.0 w/v %, saccharide 1 w/v %
[18] = mineral 2.0 w/v %, saccharide 1 w/v %
[19] = mineral 2.5 w/v %, saccharide 1 w/v %
[20] = mineral 3.0 w/v %, saccharide 1 w/v %
[21] = mineral 3.5 w/v %, saccharide 1 w/v %
[22] = mineral 4.0 w/v %, saccharide 1 w/v %
[23] = mineral 5.0 w/v %, saccharide 1 w/v %
[24] = mineral 5.5 w/v %, saccharide 1 w/v %
[25] = mineral 6.0 w/v %, saccharide 1 w/v %

Row | SMILES | Judgment score of biological activity [1, 3] | Judgment score of biological activity [1, 4] | Judgment score of biological activity [1, 5] | Judgment score of biological activity [1, 6] | Judgment score of biological activity [1, 7] | Judgment score of biological activity [1, 8] | Judgment score of biological activity [1, 9] | Judgment score of biological activity [1, 10] | Judgment score of biological activity [1, 11] | Judgment score of biological activity [1, 12] | Judgment score of biological activity [1, 13] | Judgment score of biological activity [1, 14] | Judgment score for biological activity [1, 15] | Judgment score for biological activity [1, 16] | Judgment score for biological activity [1, 17] | Judgment score for biological activity [1, 5] | Judgment score for biological activity [1, 18] | Judgment score for biological activity [1, 19] | Judgment score for biological activity [1, 20] | Judgment score for biological activity [1, 21] | also measured
1 | OC[C@H]1O[C@H](O[C@H]2O[C@H](CO)[C@@H](O)[C@H](O)[C@H]2O)[C@H](O)[C@@H](O)[C@@H]1O [α,α-Trehalose, α,α-trehalose] | 19 | 38 | 44 | 47 | 38 | 21 | 21 | 35 | 50 | 51 | 31 | 18 | 12 | 16 | 38 | 44 | 47 | 51 | 54 | 50 | Judgment score for biological activity [1, 22]: 50; Judgment score for biological activity [1, 11]: 49; Judgment score for biological activity [1, 23]: 34; Judgment score for biological activity [1, 24]: 10; Judgment score for biological activity [1, 25]: 5; Activity of Carassius cuvieri [2]: Good
2 | OC[C@H]1O[C@H](O[C@H]2O[C@H](CO)[C@@H](O[C@H]3O[C@H](CO)[C@@H](O[C@H]4O[C@H](CO)[C@@H](O)[C@H](O)[C@H]4O)[C@H](O)[C@H]3O)[C@H](O)[C@H]2O)[C@H](O)[C@@H](O)[C@@H]1O [α-Maltosyl α,α-trehalose, α-maltosyl α,α-trehalose] | 18 | 35 | 41 | 43 | 34 | 16 | 16 | 37 | 44 | 45 | 30 | 15 | 11 | 14 | 36 | 40 | 45 | 49 | 53 | 50 | Judgment score for biological activity [1, 22]: 47; Judgment score for biological activity [1, 11]: 45; Judgment score for biological activity [1, 23]: 33; Judgment score for biological activity [1, 24]: 11; Judgment score for biological activity [1, 25]: 2; Activity of Carassius cuvieri [2]: Good
